Converted amounts (≈) assume the structure as drawn.
What was measured:
Type in all cases: physicochemical
[1] = Thermodynamic solubility, shake-flask method; details: for solubility at 24 h: organic solvent or mixture, thermodynamic from solid, RT
Method: The thermodynamic solubility of aza-T-dCyd was determined according to the shake-flask method. Suspensions of the crystalline aza-T-dCyd were prepared in 25 neat solvents. Small aliquots of solvent were added to the aza-T-dCyd until thin suspensions were obtained. Subsequently, the samples were equilibrated at RT under continuous stirring for 24 hours. After equilibration, a small aliquot of mother liquor was filtered and analyzed by HPLC. The concentration of the solute was determined against a calibration curve of the aza-T-dCyd. The solubility values of aza-T-dCyd at room temperature are listed in Table 3 according to the US Pharmacopeia's classification (USP29). The aza-T-dCyd was soluble in high boiling point solvents such as DMF and DMA. Generally, aza-T-dCyd was slightly or very slightly soluble in polar solvents and practically insoluble in non-polar solvents.

[2] = Stability tests at 5° C.: mother liquors and solid phases of suspensions, HPLC; details: for chemical stability (purity over time) / purity decreased over time to: 5° C.; for chemical stability (purity over time): 70 hours; for purity decreased over time to: about 70 hours, area %
Method: Additional stability tests were performed at 5° C. Suspensions of the starting material were prepared in water, acetonitrile, ethanol (EtOH), and isopropanol. The mother liquors of the suspensions and the water solution were analyzed by HPLC at regular intervals over 3 days.
The solid phases from the suspensions were also evaluated for purity after 72 h. […] Therefore, the aza-T-dCyd appeared chemically stable in the solid phase after 70-hour incubation at 5° C.

[3] = Chemical stability of aza-T-dCyd in solutions (RT, 50° C., 80° C.), HPLC; details: for purity in solution (chemical stability): RT for 24 h, and 50° C. or 80° C. for 1 hour, HPLC
Method: The chemical stability of aza-T-dCyd was determined. Aza-T-dCyd was prepared in 1,4-dioxane, acetonitrile (ACN), isopropanol (IPA), and methyl ethyl ketone. Each solution was divided over 3 vials and incubated at RT for 24 hours, at 50° C. for 1 hour, or at 80° C. for 1 hour. The solutions were analyzed by HPLC at the start and after the incubation time.

USP29 class. ([1]; 2,2,2,-trifluoroethanol, Methanol (rows r7-r8), class wraps over two lines: Slightly Soluble): Slightly | USP29 class. ([1]; Anisole to Toluene (rows r20-r33), class wraps over two lines: Practically insoluble): Practically | USP29 class. ([1]; Dimethylformamide, N,N-dimethylacetamide (rows r5-r6)): Soluble | USP29 class. ([1]; Ethanol to 1,2-dimethoxyethane (rows r9-r19), class wraps over three lines: Very Slightly Soluble): Very | solubility at 24 h ([1]; 1,2-dimethoxyethane): 100 µg/mL (≈ 409 µM) | solubility at 24 h ([1]; 1,4-dioxane): 300 µg/mL (≈ 1230 µM) | solubility at 24 h ([1]; 1-propanol): 400 µg/mL (≈ 1640 µM) | solubility at 24 h ([1]; 2,2,2,-trifluoroethanol): 4100 µg/mL (≈ 16800 µM) | solubility at 24 h ([1]; 2-butanol): 300 µg/mL (≈ 1230 µM) | solubility at 24 h ([1]; 2-methyltetrahydrofuran): 100 µg/mL (≈ 409 µM) | solubility at 24 h ([1]; 2-propanol): 400 µg/mL (≈ 1640 µM) | solubility at 24 h ([1]; 4-methyl-2-pentanone): 100 µg/mL (≈ 409 µM) | solubility at 24 h ([1]; Acetone): 200 µg/mL (≈ 819 µM) | solubility at 24 h ([1]; Acetonitrile): 100 µg/mL (≈ 409 µM) | solubility at 24 h ([1]; Anisole): < 100 µg/mL | solubility at 24 h ([1]; Chloroform): < 100 µg/mL | solubility at 24 h ([1]; Cumene): < 100 µg/mL | solubility at 24 h ([1]; Cyclohexane): < 100 µg/mL | solubility at 24 h ([1]; Dichloromethane): < 100 µg/mL | solubility at 24 h ([1]; Diethyl ether): < 100 µg/mL | solubility at 24 h ([1]; Dimethylformamide): 65800 µg/mL (≈ 269000 µM) | solubility at 24 h ([1]; Ethanol): 800 µg/mL (≈ 3270 µM) | solubility at 24 h ([1]; Ethyl acetate): < 100 µg/mL | solubility at 24 h ([1]; Ethyl formate): < 100 µg/mL | solubility at 24 h ([1]; Heptane): < 100 µg/mL | solubility at 24 h ([1]; Isopropyl acetate): < 100 µg/mL | solubility at 24 h ([1]; Methanol): 3600 µg/mL (≈ 14700 µM) | solubility at 24 h ([1]; Methyl ethyl ketone): < 100 µg/mL | solubility at 24 h ([1]; N,N-dimethylacetamide): 60000 µg/mL (≈ 246000 µM) | solubility at 24 h ([1]; Tetrahydrofuran): 100 µg/mL (≈ 409 µM) | solubility at 24 h ([1]; Toluene): < 100 µg/mL | solubility at 24 h ([1]; p-Xylene): < 100 µg/mL | solubility at 24 h ([1]; tert-butyl methyl ether): < 100 µg/mL | chemical stability (purity over time) ([2]; IPA, mother liquor): remained stable | purity decreased over time to ([2]; acetonitrile, mother liquor): 84% | chemical stability (purity over time) ([2]; ethanol, mother liquor): remained stable | Purity of Aza-T-dCYd after 72 h at 5° C. ([2]; solid phase from ACN suspension): 98.8 area % | Purity of Aza-T-dCYd after 72 h at 5° C. ([2]; solid phase from EtOH suspension): 99.8 area % | Purity of Aza-T-dCYd after 72 h at 5° C. ([2]; solid phase from IPA suspension): 99.4 area % | purity of solids recovered from the suspensions ([2]; solid phases from the four solvents after 72 h at 5° C.): about 99 % (area %) | purity decreased over time to ([2]; water solution): 78% | purity in solution (chemical stability) ([3]; 1,4-dioxane): > 95% | chemical stability in solution ([3]; IPA, heated at 80° C. (1 hour) or stored at RT for 24 h): degraded significantly | purity in solution (chemical stability) ([3]; acetonitrile): > 95% | chemical stability in solution ([3]; methyl ethyl ketone, 1 hour at 50° C. and 80° C., 24 hour at RT): significant decomposition
SMILES: Nc1ncn([C@H]2C[C@H](O)[C@@H](CO)S2)c(=O)n1 [aza-T-dCyd, 5-Aza-4′-thio-2′-deoxycytidine]

From US11447472B2, “Polymorophs of 5-aza-4′-thio-2′-deoxycytidine” (Southern Research Institute, priority 2020, dated 2022)
